Test results published in PMC10056986 (Pharmaceuticals, 2023).
“And” between values parts separate entries of the source, which are not always exact repeats. Equal entries are not always repeated. Where two headings read alike, the source gives them in different places.

How the values were obtained:
CDK2 = CDK2 (Homo sapiens, UniProt P24941); test: biochemical
JNK1 = JNK1 (Homo sapiens, UniProt P45983); test: biochemical
MAPKAPK2 = MAPKAPK2 (Homo sapiens, UniProt P49137); test: biochemical
Beta1 = Beta1 (Homo sapiens, UniProt P08588); test: cell-based
AD2 = format: cell-based, human
[1] = system: Influenza virus A/WSN/33 (H1N1); test: microbe, parasite or virus in culture; format: cell-based; details: MDCK, read-out: EC50 (mean ± SD)
HSV-1 GHSV-UL46 = test: microbe, parasite or virus in culture; format: cell-based, herpes simplex virus type 1; details: Human alphaherpesvirus 1, Vero C1008, read-out: EC50 for Virus
[2] = system: influenza A virus WSN/33 (H1N1); design: species or system BALB/c mice; details: mouse, in vivo
[3] = system: influenza A virus WSN/33 (H1N1); design: species or system BALB/c mice; details: mouse, in vivo; remark: listed apart in the source
in vitro = details: rhesus monkey
CHK1 = CHK1 (Homo sapiens, UniProt O14757); test: biochemical
hERG potassium channel = hERG potassium channel (Homo sapiens, UniProt Q12809); test: cell-based
PDK1 = PDK1 (Homo sapiens, UniProt O15530); test: biochemical
TAOK2 = TAOK2 (Homo sapiens, UniProt Q9UL54); test: biochemical
Sequence of TAOK2 (Q9UL54 whole entry): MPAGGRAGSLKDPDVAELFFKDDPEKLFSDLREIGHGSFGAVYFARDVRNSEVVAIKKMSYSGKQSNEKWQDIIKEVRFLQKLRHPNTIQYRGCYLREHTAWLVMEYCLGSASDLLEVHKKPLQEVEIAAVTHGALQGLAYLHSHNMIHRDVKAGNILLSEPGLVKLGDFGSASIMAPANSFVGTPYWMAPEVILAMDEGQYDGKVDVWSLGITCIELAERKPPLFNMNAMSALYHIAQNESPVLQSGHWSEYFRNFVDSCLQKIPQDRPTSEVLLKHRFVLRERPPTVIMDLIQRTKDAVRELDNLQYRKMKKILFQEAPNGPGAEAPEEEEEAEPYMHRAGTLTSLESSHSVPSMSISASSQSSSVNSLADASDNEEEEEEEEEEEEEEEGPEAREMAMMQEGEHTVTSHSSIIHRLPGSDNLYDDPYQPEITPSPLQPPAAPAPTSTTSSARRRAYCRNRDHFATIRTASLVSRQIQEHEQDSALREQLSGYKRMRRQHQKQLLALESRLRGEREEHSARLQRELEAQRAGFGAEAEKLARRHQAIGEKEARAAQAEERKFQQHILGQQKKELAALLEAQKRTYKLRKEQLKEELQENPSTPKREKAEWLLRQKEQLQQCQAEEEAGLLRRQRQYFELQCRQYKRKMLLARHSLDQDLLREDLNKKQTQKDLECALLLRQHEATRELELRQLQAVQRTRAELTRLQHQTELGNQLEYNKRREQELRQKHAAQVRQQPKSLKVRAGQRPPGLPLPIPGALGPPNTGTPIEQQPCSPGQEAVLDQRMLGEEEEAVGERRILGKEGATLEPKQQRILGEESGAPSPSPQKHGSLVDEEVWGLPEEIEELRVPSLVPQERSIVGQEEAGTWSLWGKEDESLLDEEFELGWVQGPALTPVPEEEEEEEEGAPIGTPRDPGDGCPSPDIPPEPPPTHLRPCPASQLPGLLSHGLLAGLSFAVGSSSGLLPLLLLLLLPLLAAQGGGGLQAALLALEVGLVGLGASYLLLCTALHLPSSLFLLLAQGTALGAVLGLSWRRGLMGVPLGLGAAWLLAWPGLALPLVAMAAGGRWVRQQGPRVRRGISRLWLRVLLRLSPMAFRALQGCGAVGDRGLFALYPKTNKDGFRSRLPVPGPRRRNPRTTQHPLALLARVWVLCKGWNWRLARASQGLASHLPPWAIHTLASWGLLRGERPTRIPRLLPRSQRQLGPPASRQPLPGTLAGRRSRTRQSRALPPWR

Sequence of Beta1 (P08588 whole entry): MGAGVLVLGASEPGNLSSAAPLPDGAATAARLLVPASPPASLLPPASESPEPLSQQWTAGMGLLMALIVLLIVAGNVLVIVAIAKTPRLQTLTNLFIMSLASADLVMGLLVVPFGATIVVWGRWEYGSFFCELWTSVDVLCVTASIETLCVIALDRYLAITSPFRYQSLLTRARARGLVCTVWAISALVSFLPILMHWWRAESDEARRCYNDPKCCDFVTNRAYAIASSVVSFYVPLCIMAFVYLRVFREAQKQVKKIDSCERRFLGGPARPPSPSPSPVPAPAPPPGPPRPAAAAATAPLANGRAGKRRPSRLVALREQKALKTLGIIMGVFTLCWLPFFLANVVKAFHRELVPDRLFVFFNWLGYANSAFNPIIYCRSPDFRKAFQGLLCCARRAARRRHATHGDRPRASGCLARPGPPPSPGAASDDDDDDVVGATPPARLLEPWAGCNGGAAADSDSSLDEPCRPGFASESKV
Sequence of MAPKAPK2 (P49137 whole entry): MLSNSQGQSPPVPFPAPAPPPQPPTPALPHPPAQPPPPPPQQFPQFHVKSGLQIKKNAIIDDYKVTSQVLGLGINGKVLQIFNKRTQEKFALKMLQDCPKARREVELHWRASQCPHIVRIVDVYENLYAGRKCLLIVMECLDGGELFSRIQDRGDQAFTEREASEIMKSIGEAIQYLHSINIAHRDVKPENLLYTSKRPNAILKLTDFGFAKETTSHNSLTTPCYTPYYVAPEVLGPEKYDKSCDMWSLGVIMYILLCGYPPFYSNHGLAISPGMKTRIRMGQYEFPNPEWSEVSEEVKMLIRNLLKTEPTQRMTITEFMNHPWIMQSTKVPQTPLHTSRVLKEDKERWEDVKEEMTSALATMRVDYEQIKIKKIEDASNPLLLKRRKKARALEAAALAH
Sequence of CHK1 (O14757 whole entry): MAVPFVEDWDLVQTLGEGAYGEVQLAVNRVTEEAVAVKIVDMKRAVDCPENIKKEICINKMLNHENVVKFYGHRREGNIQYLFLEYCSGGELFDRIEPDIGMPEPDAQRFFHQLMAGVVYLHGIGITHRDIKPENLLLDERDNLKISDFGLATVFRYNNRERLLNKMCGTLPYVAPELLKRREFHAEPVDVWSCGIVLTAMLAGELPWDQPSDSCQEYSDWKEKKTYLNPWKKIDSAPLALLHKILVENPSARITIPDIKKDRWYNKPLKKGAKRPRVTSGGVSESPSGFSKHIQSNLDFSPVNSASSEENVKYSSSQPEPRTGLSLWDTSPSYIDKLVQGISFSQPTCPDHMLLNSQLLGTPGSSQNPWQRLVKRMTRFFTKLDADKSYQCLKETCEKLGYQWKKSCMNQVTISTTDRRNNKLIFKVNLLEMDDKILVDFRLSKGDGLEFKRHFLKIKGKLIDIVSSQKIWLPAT
Sequence of JNK1 (P45983 whole entry): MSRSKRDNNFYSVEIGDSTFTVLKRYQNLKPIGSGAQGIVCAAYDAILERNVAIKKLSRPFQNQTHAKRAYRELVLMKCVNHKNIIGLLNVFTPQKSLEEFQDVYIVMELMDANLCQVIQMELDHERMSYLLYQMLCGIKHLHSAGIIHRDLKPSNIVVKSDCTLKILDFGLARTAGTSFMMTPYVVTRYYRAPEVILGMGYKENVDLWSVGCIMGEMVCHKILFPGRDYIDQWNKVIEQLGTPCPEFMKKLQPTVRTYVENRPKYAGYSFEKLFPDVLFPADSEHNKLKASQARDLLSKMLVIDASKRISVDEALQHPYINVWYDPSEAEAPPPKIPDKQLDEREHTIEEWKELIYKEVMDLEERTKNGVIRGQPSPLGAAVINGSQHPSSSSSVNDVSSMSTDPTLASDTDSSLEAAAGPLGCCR
Sequence of PDK1 (O15530 whole entry): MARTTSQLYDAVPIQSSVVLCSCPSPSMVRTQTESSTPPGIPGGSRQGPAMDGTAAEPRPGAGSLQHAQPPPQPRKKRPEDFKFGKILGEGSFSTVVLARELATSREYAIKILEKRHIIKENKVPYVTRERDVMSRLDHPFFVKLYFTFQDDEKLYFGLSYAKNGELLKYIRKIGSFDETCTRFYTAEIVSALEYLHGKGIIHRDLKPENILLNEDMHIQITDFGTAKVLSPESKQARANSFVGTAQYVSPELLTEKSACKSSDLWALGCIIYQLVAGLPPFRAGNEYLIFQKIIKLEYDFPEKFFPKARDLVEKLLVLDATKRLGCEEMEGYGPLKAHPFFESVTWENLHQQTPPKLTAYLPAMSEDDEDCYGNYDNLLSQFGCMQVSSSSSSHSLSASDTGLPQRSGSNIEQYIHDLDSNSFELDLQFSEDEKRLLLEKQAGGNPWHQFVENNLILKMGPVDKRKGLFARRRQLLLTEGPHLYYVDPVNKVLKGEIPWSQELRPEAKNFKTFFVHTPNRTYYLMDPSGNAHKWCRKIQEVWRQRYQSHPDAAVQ
Sequence of hERG potassium channel (Q12809 whole entry): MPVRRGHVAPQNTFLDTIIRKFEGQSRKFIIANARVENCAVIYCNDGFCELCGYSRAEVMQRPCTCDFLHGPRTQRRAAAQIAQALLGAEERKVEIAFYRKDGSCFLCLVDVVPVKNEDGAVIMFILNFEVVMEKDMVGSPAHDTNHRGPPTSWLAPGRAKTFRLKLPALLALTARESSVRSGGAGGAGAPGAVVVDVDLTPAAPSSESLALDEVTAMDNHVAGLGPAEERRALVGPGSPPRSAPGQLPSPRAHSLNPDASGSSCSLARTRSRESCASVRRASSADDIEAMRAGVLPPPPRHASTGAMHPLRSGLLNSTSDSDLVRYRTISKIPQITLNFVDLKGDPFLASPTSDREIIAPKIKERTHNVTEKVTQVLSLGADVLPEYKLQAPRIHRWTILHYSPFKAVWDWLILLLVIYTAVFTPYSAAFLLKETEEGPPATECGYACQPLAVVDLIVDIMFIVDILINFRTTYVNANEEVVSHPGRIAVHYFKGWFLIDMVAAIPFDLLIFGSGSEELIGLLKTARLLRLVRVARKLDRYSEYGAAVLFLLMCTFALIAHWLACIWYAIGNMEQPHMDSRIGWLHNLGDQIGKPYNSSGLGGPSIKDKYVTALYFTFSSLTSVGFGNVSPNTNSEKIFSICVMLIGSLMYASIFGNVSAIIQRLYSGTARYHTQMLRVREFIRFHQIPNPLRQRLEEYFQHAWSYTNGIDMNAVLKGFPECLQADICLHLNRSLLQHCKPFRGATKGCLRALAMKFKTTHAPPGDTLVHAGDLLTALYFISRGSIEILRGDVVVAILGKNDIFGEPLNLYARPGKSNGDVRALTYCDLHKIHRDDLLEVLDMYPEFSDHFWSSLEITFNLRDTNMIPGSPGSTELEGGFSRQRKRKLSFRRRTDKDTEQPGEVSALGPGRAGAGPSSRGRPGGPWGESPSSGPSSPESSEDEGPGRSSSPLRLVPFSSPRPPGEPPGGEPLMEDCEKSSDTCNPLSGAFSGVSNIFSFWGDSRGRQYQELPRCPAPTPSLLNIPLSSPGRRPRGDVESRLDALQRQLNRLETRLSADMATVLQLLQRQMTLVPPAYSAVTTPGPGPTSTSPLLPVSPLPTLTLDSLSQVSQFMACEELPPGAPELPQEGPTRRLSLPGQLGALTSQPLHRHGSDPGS

Q: Which IC50 (CDK2) does the source give for `O=C(O)[C@H]1C2CCC(CC2)[C@@H]1Nc1nc(-c2n[nH]c3ncc(F)cc23)nc(C2CC2)c1F` [ZSP1273] here?
A: > 10 µM

Q: And the IC50 (JNK1)?
A: > 10 µM

Q: And the IC50 (MAPKAPK2)?
A: > 10 µM

Q: What about the EC50 (Beta1) of the same molecule?
A: > 12 µM

Q: And the “Activity at Maximum Concentration (%)” value (Beta1; 12,000 nM)?
A: 0.54%

Q: And the IC50 (AD2)?
A: > 10 µM

Q: And the “Inhibition at Maximum Concentration (%)” value (AD2; 10,000 nM)?
A: 43.84%

Q: What about the EC50 [1] of the same molecule?
A: 0.063 ± 0.028 nM

Q: What about the EC50 (HSV-1 GHSV-UL46) of the same molecule?
A: > 10 µM

Q: What about the “day on which mice began to regain body weight” value [2] of the same molecule?
A: 4 days and 5 days

Q: What about the “decrease of viral load in lung tissues vs vehicle” value (“decrease of viral load” for short) ([2]; 3 mg/kg) of the same molecule?
A: 2.37 log10

Q: And the “decrease of viral load” value ([2]; 10 mg/kg)?
A: 3.1 log10 and 4.18 log10

Q: And the “decrease of viral load” value ([2]; 30 mg/kg)?
A: 4.97 log10

Q: And the “viral titer in lung tissues” value ([2]; 30 mg/kg)?
A: < 2.0 log10

Q: And the “body weight of mice” value [3]?
A: did not significantly reduce the body weight

Q: What about the “survival rate vs vehicle” value [3] of the same molecule?
A: could improve the survival rate

Q: What about the “time of death relative to vehicle group” value [3] of the same molecule?
A: died later than those in the vehicle group

Q: And the CC50 (in vitro)?
A: > 10 µM

Q: And the IC50 (CHK1)?
A: > 10 µM

Q: What about the IC50 (hERG potassium channel) of the same molecule?
A: > 40 µM

Q: And the IC50 (PDK1)?
A: > 10 µM

Q: What about the IC50 (TAOK2) of the same molecule?
A: > 10 µM
